Entries after “also recorded” stand apart in the source; their conditions may differ.
Key:
Type in all cases: cell-based
PC-3CTRwt cells = experiment: Paracellular permeability (PCP), TRITC-dextran diffusion
Protocol: (§1) For PCP measurements, cells were grown to confluence on Transwell filters. Tetra methyl rhodamine-dextran (1 mg/ml, ˜4 kDa, Sigma) was added to the upper chamber. Fluorescence of the lower chamber medium was measured in Modulus Microplate Reader (Turner Biosystems) at various time intervals.
TJs form a barrier that regulates the movement of ions, solutes and growth factors between cells. To detect whether CT affects the barrier, the diffusion of fluorophore-conjugated dextran was measured across polarized PC cell line monolayers, a procedure called paracellular permeability (PCP). FIG. 2B depicts CTR-C PDZ-binding motif mutation and tight junction (TJ) disruption as measured using PCP. Polarized PC-3V, PC-3-CTRwt and PC-3CTRΔESS cells were treated with or without 50 nM CT, and PCP determined by diffusion of ˜4 kDa TRITC-conjugated dextran from the upper to the lower chamber in one hour. The results are expressed as μg/ml/hour of TRITC-Dextran diffused ±SEM (n=6; *p<0.05 (−CT v +CT, One way ANOVA and Newman-Keul's test)). […]
The effect of CT on TJ functionality was tested by monitoring TER of PC-3CTRwt monolayers. […] TER was measured with EVOM volt-ohm meter. The results are expressed as TER ±SEM (Ωcm^2±SEM; n=6). […] PCP was determined by diffusion of ˜4 kDa TRITC-conjugated dextran from the upper to the lower chamber in one hour. […]

PC-3CTRΔESS cells = experiment: as above
Protocol: as §1
(§2) TJs form a barrier that regulates the movement of ions, solutes and growth factors between cells. To detect whether CT affects the barrier, the diffusion of fluorophore-conjugated dextran was measured across polarized PC cell line monolayers, a procedure called paracellular permeability (PCP). FIG. 2B depicts CTR-C PDZ-binding motif mutation and tight junction (TJ) disruption as measured using PCP. Polarized PC-3V, PC-3-CTRwt and PC-3CTRΔESS cells were treated with or without 50 nM CT, and PCP determined by diffusion of ˜4 kDa TRITC-conjugated dextran from the upper to the lower chamber in one hour. The results are expressed as μg/ml/hour of TRITC-Dextran diffused ±SEM (n=6; *p<0.05 (−CT v +CT, One way ANOVA and Newman-Keul's test)). […] In contrast, CTRΔESS expression had little effect on PCP in the presence or absence of CT.

PC-3V cells = experiment: as above; conditions: 50 nM CT
Protocol: as §1, §2

ZO-1 and claudin 3 = experiment: In vivo 32P phosphorylation and phosphoserine/phosphothreonine immunoblotting
Protocol: Postconfluent cells cultured were serum-starved overnight, and then labeled with [^32P]orthophosphate (NEN/DuPont Chemicals) in phosphate-free serum-free Dulbecco's modified Eagle's medium for 3 hours at 37° C. The cells were then treated with calcitonin (CT) (50 nM for 10 min, 37° C.). When used, myristoylated PKA-inhibitory peptide (mPKI; 100 nM) was added 15 min prior to the addition of CT (50 nM). The cells were then washed with ice-cold phosphate-buffered saline, and lysed in 700 μl lysate buffer. The lysate was cleared by centrifugation for 10 min at 10,000×g. For immunoprecipitation, the supernatant was incubated overnight with primary antibody, and Protein A-Sepharose (40 μl, GE Healthcare) was added next morning. Washed immune complexes were fractionated on SDS-PAGE. The gels were either dried and exposed to film or transferred onto polyvinylidene difluoride membranes and immunoblotted as described above.
The IPs were processed for immunoblotting with either anti-phosphoserine or anti-phosphothreonine antibodies followed by secondary antibody and developed with ECL To control for protein loading and transfer, the blots were stripped and reprobed with the immunoprecipitating antibody.
To directly examine the involvement of PKA in CTR action on TJ disassembly, the in vivo incorporation of ^32PO4 in TJ proteins was examined. […] Arrows indicate location of ZO-1 and claudin-3. FIG. 17B depicts the total amount of ^32P-radioactivity of IP bands of ZO-1 and claudin from cells treated with CT (CT) and without treatment (Control, C). […] The results of occludin were inconclusive (data not shown).
Next, the phosphorylated amino acids in these proteins were identified by probing ZO-1 and claudin 3 immunoprecipitates with antisera against phosphoserine, phosphothreonine and phosphotyrosine. […] The blots were probed by antibodies to phosphoserine (Ser), phosphothreonine (Thr), and phosphotyrosine (Tyr). […] There was complete absence of phosphotyrosines in either of these TJ proteins, consistent with the role of PKA in CTR-stimulated phosphorylation of ZO-1 and claudin 3.
As shown above, the interaction of CTR with ZO-1 occurs between CTR-C PDZ-binding motif and PDZ3 domain of ZO-1. […] To examine the role of CTR-C PDZ-binding motif on phosphorylation of TJ proteins, the serine/threonine phosphorylation of ZO-1 and claudin 3 was analyzed in PC-3CTRwt and PC-3CTRΔESS cells. […] The immunoprecipitates were then probed with antibodies to phosphoserine. […] The immunoprecipitates were then probed with antibodies to phosphothreonine. The IPs of ZO-1 and claudin 3 were immunoblotted and probed for phosphoserine and phosphothreonine.

Which results are given for calcitonin [CT]?
PCP (PC-3CTRwt cells; 50 nM CT): increased PCP significantly; also recorded: eighty percent; PCP at multiple CT doses (PC-3CTRwt cells; CT doses of 10 nM or higher): induced an increase; PCP at multiple CT concentrations (PC-3CTRΔESS cells; all tested concentrations): did not alter PCP; PCP (PC-3CTRΔESS cells; presence or absence of 50 nM CT): little effect; PCP (PC-3V cells): did not alter it; 32P incorporation in immunoprecipitated ZO-1 and claudin 3 (ZO-1 and claudin 3; CT 50 nM): ten-fold increase; incorporation of 32PO4 in ZO-1 and claudin 3 (autoradiogram) (ZO-1 and claudin 3; CT 50 nM, 10 min): remarkable increase; serine/threonine phosphorylation of ZO-1 and claudin 3 (ZO-1 and claudin 3; CT 50 nM, PC-3CTRwt cells): stimulated phosphorylation of serines and threonines in ZO-1 and only threonines in claudin-3; also recorded: detectable increase; phosphorylation of ZO-1 and claudin 3 (ZO-1 and claudin 3; CT, PC-3CTRΔESS cells): did not induce phosphorylation
